Measured values taken from US4608365A, “Treatment of neurologic functions” (priority 1984, dated 1986).

Tests used:
[1] = human, in vivo
Method: In three ALS patients given 25 mg TRH intravenously during 6 minutes, concommitant TRH values were measured in the plasma and serum at 0, 6 and 12 minutes.

[2] = tested on: amyotrophic lateral sclerosis patients; assay: Effect of TRH on chronic joint pain in ALS patients (Example VIII); type: in vivo, human; details: after TRH treatment
Source text: In untreated amyotrophic lateral sclerosis patients, especially in more advanced stages of the disease, aching of joints is common, (e.g., in a "frozen shoulder" or painful hip). Often, the pain is so severe as to impair sleep. […] The reduction of pain was clearly appreciated when the patients were awake, and it also allowed much more restful nights without their being awakened frequently by pain. […] A logical extension of this observation is that pain of many causes, including other forms of arthritic pain, might be lessened by TRH, or an analog, active derivative or analog of an active derivative of TRH.

[3] = tested on: ALS patients; details: human, in vivo
Method: Five ALS patients (men, women, duration of disease one, one, three and one-half, four and three years, respectively) were given TRH as a continuous intravenous infusion. […] For about one-fifth of the days, the patients were given saline placebo.
It should be noted that the TRH administered in Example I was infused at a rate of up to 200 mg. over a twenty-four hour period. In terms of presence in the body at any one time, this amounted to an infusion rate of about 0.14 mg/minute ([…] body weight based upon the average patient weight of 70 kg). Accordingly, and in view of the significant results shown in Examples II-VIII, it appears that an elevated initial dose and consequently a blood level peak, providing a pulse-effect, is required each time TRH is given. Specifically, in Example IV, intravenous infusion at one milligram per minute (over seven times the infusion rate in Example I) produced an improvement of strength in several muscle functions. […] In Example IV, an acute increase in strength occurred at 4.7 mg/minute intravenously.
There were several control aspects of the TRH studies. […] The patients given subcutaneous TRH had treatments interspersed with saline placebo injections. […] The time course of response was not known before the study and, in fact, it was expected that the onset would be later and the duration of response longer than was actually found. […]

[4] = tested on: ALS patients; assay: Transient autorefractory effect, subcutaneous TRH in ALS patients; type: in vivo, human
Source text: Possible mechanisms for autorefractoriness, presumably involving the lower motor neuron soma/dendrites and/or neurons afferent thereto, include: […] In normal animals, repeated micropipetting of TRH near lower motor neurons has been shown by others to cause a similar prolonged unresponsiveness. The mechanism of autorefractoriness may be, in general, related to the excellent clinical anti-spasticity benefits of TRH, and non-excitatory TRH analogs may be employed within the spirit of the invention to enhance this type of clinical improvement.

[5] = tested on: ALS patients; type: in vivo, human
Method: Three fasting ALS patients (men aged 37 and 60 and a person; duration of disease three-quarters of a year, one and three years, respectively) were each given an intravenous infusion of TRH in which the dose increased in seven steps from 0.5 to 19 mg/minute over sixty to eighty minutes (total dose 320, 432 and 500 mg). The two men had major spasticity from upper motor neuron involvement and weakness from lower motor neuron involvement. […] Shivering, tachypnoea and sweating increased further with rising dosage, and in the two men the infusion was stopped at 19 mg/minute, after 320 and 432 mg total, because of tachypnoea (40-45 breaths per minute) and vigorous shivering. There also was a transient increase in pulse rate (10-15 beats per minute). The men experienced sensations of coolness or warmth of the anterior lower chest and abdomen. One of the men felt "bad all over" at 19 mg/minute. […] At that time, a spinal lumbar puncture was performed to obtain cerebrospinal fluid for analysis as hereinafter described. The patient had no spasticity, only weakness from lower motor neuron involvement. […] Their infusion was stopped when the drug supply was depleted (at 500 mg total dose). The dosage was not stopped because of side-effects of TRH. […] Experience with the additional patients confirmed the observation that there is more shivering side-effect in the patients with more spasticity.
There were several control aspects of the TRH studies. […] The patients given subcutaneous TRH had treatments interspersed with saline placebo injections. […] The time course of response was not known before the study and, in fact, it was expected that the onset would be later and the duration of response longer than was actually found. Different patients responded to different doses of TRH, and the sex difference in response (woman apparently less responsive) was not expected. […] There were three observers, one unaware of the infusion status. In addition, clinical examinations of all patients of Examples III-VII were videotaped and later reviewed by several observers.

[6] = tested on: non-ALS patients; assay: Intravenous and subcutaneous TRH in non-ALS patients with lower or upper motor neuron abnormality (Example VII); type: in vivo, human; details: i.v. and s.c., seven non-ALS patients
Source text: The dosage, benefits and side-effects were essentially similar to those described in Examples II, V and VI.

[7] = tested on: ALS patients; assay: Transient autorefractory effect, intravenous TRH in ALS patients; type: in vivo, human
Method: To analyze this phenomenon, four ALS patients were given six-minute intravenous pulses of […] of TRH at ten to twenty minute intervals. Each of the first one to five "priming doses" produced or, sustained dramatically-increased strength in responsive muscles. Subsequent identical pulses precipitated an equally dramatic interruption within 18-30 seconds causing rapid loss of all improvement, back to baseline strength or below, i.e., "autorefractoriness." Some weakness of clinically normal limb muscles also sometimes occurred. Eleven autorefractory states of the four patients lasted 12-100 minutes (median 68 minutes) after initial administration of TRH, until spontaneous recovery re-achieved maximal strength benefit. During recovery, strength fluctuated. […] When the autorefractory state first developed, with loss of strength to baseline, increasing the infusion to 1.5 mg/minute rapidly overcame the "block" within one minute, associated with increased strength. Within another minute, complete autorefractoriness reappeared. Raising the rate to 2 mg/minute again reversed this blockage, with strength increased to maximum in thirty seconds, but autorefractoriness reappeared in 1.5 minutes. […] Strength fluctuated between complete blockage and partial reversal for the next 71 minutes until the autorefractoriness fully reversed itself at 81 minutes.

[8] = tested on: infant with infantile spinal muscular atrophy; parameters: species or system human; details: in vivo
[9] = eleven autorefractory states of four patients

NC(=O)[C@@H]1CCCN1C(=O)[C@H](Cc1cnc[nH]1)NC(=O)[C@@H]1CCC(=O)N1 [TRH, L-pyroglutamyl-L-histidyl-L-prolinamide]
cerebrospinal fluid TRH level [1]: ≤ 5368 pg/mL | arthritic (joint) pain [2]: striking improvement | duration of pain improvement [2]: as long as one to four days | transient rise in serum aminotransferases [3]: has not been found | partial autorefractory state, onset and duration ([4]; 125-150 mg s.c., first day): began by four to ten minutes and lasted, with fluctuations, two to three hours | time to increased strength ([4]; 125-150 mg s.c., first day, twenty ALS patients): within one to two minutes | effect of second dose at twenty-four hours ([4]; another 125-150 mg s.c.): marked weakness within two minutes | drug resistance on repeated treatment ([4]; i.v. or s.c., as long as eight months): no diminution of beneficial response attributable to drug resistance | effectiveness of low intravenous dose ([5]; 0.5 mg/minute for twenty minutes, Examples II and III): not found to be effective | dose at which shivering, tachypnoea and sweating began ([5]; human, in vivo, iv): 8 mg/min | transient increase in pulse rate ([5]; human, in vivo, iv): 10-15 beats per minute | dose at which movement and strength of legs, arms and tongue began to improve, with decreased spasticity ([5]; i.v. infusion increased in seven steps 0.5 to 19 mg/minute, two men): 2 to 4 mg/min | persistence of benefits and side effects after infusion ([5]; i.v. stepwise infusion): no longer obvious thirty minutes after the infusion ended | response of patient with no spasticity, only lower motor neuron weakness ([5]; i.v., 500 mg total dose): only slight subjective improvement in strength without obvious objective improvement | benefit [6]: markedly benefited | onset of waning-waxing of TRH-increased lower motor neuron strength ([7]; continuous i.v. 1-8 mg/minute, all patients): as early as three to thirty minutes | duration of autorefractory states [7, 9]: 12 to 100 min | median duration of autorefractory states [7, 9]: 68 min | partial reversal of autorefractoriness after TRH was stopped ([7]; one ALS patient): partially reversed at ten minutes | time to full reversal of autorefractoriness after TRH was stopped ([7]; one ALS patient): 81 min | strength ([7]; one ALS patient, 1 mg/minute continuous i.v.): markedly increased their strength | strength after raising the rate during autorefractoriness ([7]; one ALS patient, 2.5 mg/minute for nine minutes): failed to increase strength | time to interruption (loss of all improvement) after subsequent identical pulses ([7]; six-minute i.v. pulses of 4.17 mg/minute at ten to twenty minute intervals, four ALS patients): 18 to 30 s | safety and benefit on strength [8]: safety without side-effects and possible benefit on strength
